Results as given in PubChem BioAssay AID330 (DTP/NCI, 2004).
Several values for one entry are separate records, joined by “and”; a condition that tells them apart may be missing. Identical values can stand only once. Toxic doses and inconclusive results are not listed. How the source made its calls: active means survival T/C of 150% or more; inactive means T/C below 125% in these data. Square brackets hold non-standard residues; d marks the D form. Peptide text beside a SMILES is read from it. ξ: configuration not given here. ξY = NC(Cc1ccc(O)cc1)C(=O)O

System: P388 leukemia ip, CD2F1 mice, survival T/C
Experiment: NCI In Vivo Anticancer Drug Screen. Data for tumor model P388 Leukemia (intraperitoneal) in CD2F1 (CDF1) mice
Details: endpoint: median survival time, higher = longer survival
In short: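 Mice carrying the transplanted tumor received test compound or vehicle. Survival was recorded in each group, and the value is the treated-group measurement divided by that of the vehicle-treated control group.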

[1] = dose: 50.0 mg/kg/injection, schedule: Q01DX005 (ip), vehicle: Klucel (hydroxypropylcellulose) (HPC)

Measured: T/C

N.N.N.N.N.N.[Cl-].[Pt]
inactive: dose: 12.5 mg/kg/injection, schedule: Q01DX009 (ip), vehicle: saline 92 % of control | dose: 25.0 mg/kg/injection, schedule: Q01DX009 (ip), vehicle: saline 97 % of control

CN1C(=NCCO)NS(=O)(=O)c2ccccc21
inactive: dose: 50.0 mg/kg/injection, schedule: Q01DX005 (ip), vehicle: saline with Tween-80 98 % of control | dose: 100.0 mg/kg/injection, schedule: Q01DX005 (ip), vehicle: saline with Tween-80 100 % of control | dose: 200.0 mg/kg/injection, schedule: Q01DX005 (ip), vehicle: saline with Tween-80 104 % of control

Nc1nc(Cl)c(N=Nc2ccccc2)c(=O)[nH]1
inactive: dose: 7.5 mg/kg/injection, schedule: Q01DX005 (ip), vehicle: saline with Tween-80 111 % of control | dose: 15.0 mg/kg/injection, schedule: Q01DX005 (ip), vehicle: saline with Tween-80 105 % of control | dose: 30.0 mg/kg/injection, schedule: Q01DX005 (ip), vehicle: saline with Tween-80 99 % of control and 108 % of control | dose: 60.0 mg/kg/injection, schedule: Q01DX005 (ip), vehicle: saline with Tween-80 101 % of control and 109 % of control

COc1ccc2c(c1)C(c1cccc3ccccc13)OC2 (centres undefined)
inactive: dose: 12.5 mg/kg/injection, schedule: Q01DX005 (ip), vehicle: Klucel (hydroxypropylcellulose) (HPC) 100 % of control | dose: 25.0 mg/kg/injection, schedule: Q01DX005 (ip), vehicle: Klucel (hydroxypropylcellulose) (HPC) 88 % of control | [1] 86 % of control and 91 % of control

NCC(=O)NC(Cc1ccc(O)cc1)C(=O)O (centres undefined) (H-Gly-[ξY]-OH)
inactive: dose: 100.0 mg/kg/injection, schedule: Q01DX009 (ip), vehicle: saline 113 % of control | dose: 100.0 mg/kg/injection, schedule: Q04DX003 (ip), vehicle: saline 98 % of control | dose: 200.0 mg/kg/injection, schedule: Q01DX009 (ip), vehicle: saline 101 % of control | dose: 200.0 mg/kg/injection, schedule: Q04DX003 (ip), vehicle: saline 105 % of control | dose: 400.0 mg/kg/injection, schedule: Q01DX009 (ip), vehicle: saline 105 % of control | dose: 400.0 mg/kg/injection, schedule: Q04DX003 (ip), vehicle: saline 104 % of control

CC1N[P+]2(OC1=O)Oc1ccccc1N2C (centres undefined)
inactive: dose: 87.5 mg/kg/injection, schedule: Q04DX002 (ip), vehicle: Klucel (hydroxypropylcellulose) (HPC) 102 % of control | dose: 175.0 mg/kg/injection, schedule: Q04DX002 (ip), vehicle: Klucel (hydroxypropylcellulose) (HPC) 100 % of control | dose: 350.0 mg/kg/injection, schedule: Q04DX002 (ip), vehicle: Klucel (hydroxypropylcellulose) (HPC) 100 % of control

CC[N+](C)(CC)C1C(S(=O)(=O)c2ccccc2)CC1(C)C (centres undefined)
inactive: dose: 25.0 mg/kg/injection, schedule: Q01DX005 (ip), vehicle: saline 108 % of control | dose: 50.0 mg/kg/injection, schedule: Q01DX005 (ip), vehicle: saline 98 % of control | dose: 100.0 mg/kg/injection, schedule: Q01DX005 (ip), vehicle: saline 99 % of control

CC(=O)NNC(=O)CCCCCCC(=O)NNC(C)=O
inactive: [1] 98 % of control | dose: 100.0 mg/kg/injection, schedule: Q01DX005 (ip), vehicle: Klucel (hydroxypropylcellulose) (HPC) 98 % of control

O=C(Cn1ccnc1[N+](=O)[O-])NCCO
inactive: dose: 12.5 mg/kg/injection, schedule: Q01DX009 (ip), vehicle: water 113 % of control | dose: 25.0 mg/kg/injection, schedule: Q01DX009 (ip), vehicle: water 105 % of control | dose: 50.0 mg/kg/injection, schedule: Q01DX009 (ip), vehicle: water 101 % of control | dose: 100.0 mg/kg/injection, schedule: Q01DX009 (ip), vehicle: water 105 % of control | dose: 200.0 mg/kg/injection, schedule: Q01DX009 (ip), vehicle: water 114 % of control

C[CH2][Sn][CH2]C.O=C(CC(=O)c1ccccc1)c1ccccc1.O=C(CC(=O)c1ccccc1)c1ccccc1
inactive: dose: 12.5 mg/kg/injection, schedule: Q01DX001 (ip), vehicle: Klucel (hydroxypropylcellulose) (HPC) 115 % of control | dose: 25.0 mg/kg/injection, schedule: Q01DX001 (ip), vehicle: Klucel (hydroxypropylcellulose) (HPC) 111 % of control | dose: 50.0 mg/kg/injection, schedule: Q01DX001 (ip), vehicle: Klucel (hydroxypropylcellulose) (HPC) 115 % of control | dose: 100.0 mg/kg/injection, schedule: Q01DX001 (ip), vehicle: Klucel (hydroxypropylcellulose) (HPC) 110 % of control | dose: 400.0 mg/kg/injection, schedule: Q01DX001 (ip), vehicle: Klucel (hydroxypropylcellulose) (HPC) 115 % of control

CSc1nc(N)c(NS(=O)(=O)c2cccc([N+](=O)[O-])c2)c(=O)[nH]1
inactive: dose: 60.0 mg/kg/injection, schedule: Q01DX005 (ip), vehicle: Klucel (hydroxypropylcellulose) (HPC) 92 % of control | dose: 120.0 mg/kg/injection, schedule: Q01DX005 (ip), vehicle: Klucel (hydroxypropylcellulose) (HPC) 94 % of control | dose: 240.0 mg/kg/injection, schedule: Q01DX005 (ip), vehicle: Klucel (hydroxypropylcellulose) (HPC) 88 % of control
